Source: patent US20100216779A1 (GLAXOSMITHKLINE LLC, priority 2007, published 2010)

Columns and labels:
Assay type in all cases: cell-based
COLO205 (colon) = assay: Inhibition of cell proliferation, CellTiter-Glo, COLO205; conditions: Homo sapiens, COLO 205, 72 h
How it was run: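 Exponentially growing COLO205 cells in medium with 10% FBS were plated below 2000 cells/well at 37 °C, 5% CO2. Untreated wells served as controls.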

[1] = system: NCI-H929 (multiple myeloma); assay: Inhibition of cell proliferation, CellTiter-Glo, NCI-H929; conditions: Homo sapiens, 72 h
Description: C. Inhibition of Cell Proliferation
Cell proliferation was measured by either CellTiter-Glo (measures cellular ATP level as a surrogate for total cell number) or by InCell analyzer (counts number of nuclei as a measure of cell number). For CellTiter-Glo assay, exponentially growing cell lines of different tumor origins, cultured in appropriate media containing 10% fetal bovine serum at 37° C. in a 5% CO2 incubator, were plated at low density (less than 2000 cells/well) in 96-well plates. Twenty four hours post-plating, cells were treated with different concentrations of test compounds ranging from 30 uM to 1.5 nM. Several wells were left untreated as a control. Seventy two hours post-treatment, cell numbers were determined using 50-100 ul per well of CellTiter-Glo (Promega #G7573). Plates were incubated at 37° C. for 30 minutes and the chemiluminescent signal was read on the Victor V or Envison 2100 reader. […]

[2] = target: T1, human IGF-1R (NIH-3T3 cells over expressing human IGF-1R) (Homo sapiens, UniProt P08069); assay: IGF-1R cellular autophosphorylation (DELFIA); conditions: IGF-1 stimulated
T1 construct: expressed in transfected cells; host or cells: NIH-3T3 (mouse fibroblasts)
T1 sequence (P08069 31-1367): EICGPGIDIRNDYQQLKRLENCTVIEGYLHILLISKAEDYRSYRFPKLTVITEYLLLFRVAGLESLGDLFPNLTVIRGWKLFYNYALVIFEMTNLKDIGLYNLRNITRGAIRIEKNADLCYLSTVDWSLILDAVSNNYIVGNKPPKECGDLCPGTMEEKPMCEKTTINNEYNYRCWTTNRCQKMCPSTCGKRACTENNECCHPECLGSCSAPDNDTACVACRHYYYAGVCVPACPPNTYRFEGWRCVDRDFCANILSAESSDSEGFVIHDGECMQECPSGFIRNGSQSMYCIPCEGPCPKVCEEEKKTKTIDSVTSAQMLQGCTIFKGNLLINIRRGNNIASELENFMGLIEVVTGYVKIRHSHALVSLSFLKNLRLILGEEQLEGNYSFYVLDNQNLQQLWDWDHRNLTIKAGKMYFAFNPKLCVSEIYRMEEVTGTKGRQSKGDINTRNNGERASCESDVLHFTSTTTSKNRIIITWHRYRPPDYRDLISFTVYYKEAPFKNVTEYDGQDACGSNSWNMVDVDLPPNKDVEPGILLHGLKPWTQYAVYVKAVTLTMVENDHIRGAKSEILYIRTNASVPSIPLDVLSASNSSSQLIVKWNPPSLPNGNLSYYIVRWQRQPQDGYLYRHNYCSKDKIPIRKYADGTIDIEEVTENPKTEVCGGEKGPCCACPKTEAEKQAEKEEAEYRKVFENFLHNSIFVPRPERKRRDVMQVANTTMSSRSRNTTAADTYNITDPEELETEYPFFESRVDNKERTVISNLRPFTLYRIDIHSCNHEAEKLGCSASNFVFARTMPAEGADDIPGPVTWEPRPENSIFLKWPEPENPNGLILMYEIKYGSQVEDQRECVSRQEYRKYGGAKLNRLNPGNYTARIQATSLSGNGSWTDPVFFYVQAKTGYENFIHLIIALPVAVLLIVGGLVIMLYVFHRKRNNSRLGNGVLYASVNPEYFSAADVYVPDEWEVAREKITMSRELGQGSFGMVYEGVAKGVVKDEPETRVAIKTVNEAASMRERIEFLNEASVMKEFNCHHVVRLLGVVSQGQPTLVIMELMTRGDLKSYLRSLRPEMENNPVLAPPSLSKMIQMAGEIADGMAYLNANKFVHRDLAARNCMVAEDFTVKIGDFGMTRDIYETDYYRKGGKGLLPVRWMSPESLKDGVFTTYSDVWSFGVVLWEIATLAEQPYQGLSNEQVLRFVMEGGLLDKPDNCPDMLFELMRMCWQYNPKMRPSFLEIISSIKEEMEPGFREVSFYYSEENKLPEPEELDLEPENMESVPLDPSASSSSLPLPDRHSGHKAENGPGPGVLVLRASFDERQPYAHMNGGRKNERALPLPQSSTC
How it was run: (§1)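 Autophosphorylation of IGF-1R or IR is measured in NIH-3T3 lines overexpressing each human receptor after 2 h compound pretreatment and a 15 min ligand challenge (IGF-1 30 ng/mL; insulin 3 ug/mL). Fluorescence is normalised to 100% stimulation.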

[3] = target: T2, IR (NIH-3T3 cells over expressing human IGF-1R or IR) (Homo sapiens, UniProt P06213); assay: IR cellular autophosphorylation (DELFIA); conditions: NIH-3T3 cells over expressing IR, insulin stimulated
T2 construct: expressed in transfected cells; host or cells: NIH-3T3 (mouse fibroblasts)
T2 sequence (P06213 28-1382): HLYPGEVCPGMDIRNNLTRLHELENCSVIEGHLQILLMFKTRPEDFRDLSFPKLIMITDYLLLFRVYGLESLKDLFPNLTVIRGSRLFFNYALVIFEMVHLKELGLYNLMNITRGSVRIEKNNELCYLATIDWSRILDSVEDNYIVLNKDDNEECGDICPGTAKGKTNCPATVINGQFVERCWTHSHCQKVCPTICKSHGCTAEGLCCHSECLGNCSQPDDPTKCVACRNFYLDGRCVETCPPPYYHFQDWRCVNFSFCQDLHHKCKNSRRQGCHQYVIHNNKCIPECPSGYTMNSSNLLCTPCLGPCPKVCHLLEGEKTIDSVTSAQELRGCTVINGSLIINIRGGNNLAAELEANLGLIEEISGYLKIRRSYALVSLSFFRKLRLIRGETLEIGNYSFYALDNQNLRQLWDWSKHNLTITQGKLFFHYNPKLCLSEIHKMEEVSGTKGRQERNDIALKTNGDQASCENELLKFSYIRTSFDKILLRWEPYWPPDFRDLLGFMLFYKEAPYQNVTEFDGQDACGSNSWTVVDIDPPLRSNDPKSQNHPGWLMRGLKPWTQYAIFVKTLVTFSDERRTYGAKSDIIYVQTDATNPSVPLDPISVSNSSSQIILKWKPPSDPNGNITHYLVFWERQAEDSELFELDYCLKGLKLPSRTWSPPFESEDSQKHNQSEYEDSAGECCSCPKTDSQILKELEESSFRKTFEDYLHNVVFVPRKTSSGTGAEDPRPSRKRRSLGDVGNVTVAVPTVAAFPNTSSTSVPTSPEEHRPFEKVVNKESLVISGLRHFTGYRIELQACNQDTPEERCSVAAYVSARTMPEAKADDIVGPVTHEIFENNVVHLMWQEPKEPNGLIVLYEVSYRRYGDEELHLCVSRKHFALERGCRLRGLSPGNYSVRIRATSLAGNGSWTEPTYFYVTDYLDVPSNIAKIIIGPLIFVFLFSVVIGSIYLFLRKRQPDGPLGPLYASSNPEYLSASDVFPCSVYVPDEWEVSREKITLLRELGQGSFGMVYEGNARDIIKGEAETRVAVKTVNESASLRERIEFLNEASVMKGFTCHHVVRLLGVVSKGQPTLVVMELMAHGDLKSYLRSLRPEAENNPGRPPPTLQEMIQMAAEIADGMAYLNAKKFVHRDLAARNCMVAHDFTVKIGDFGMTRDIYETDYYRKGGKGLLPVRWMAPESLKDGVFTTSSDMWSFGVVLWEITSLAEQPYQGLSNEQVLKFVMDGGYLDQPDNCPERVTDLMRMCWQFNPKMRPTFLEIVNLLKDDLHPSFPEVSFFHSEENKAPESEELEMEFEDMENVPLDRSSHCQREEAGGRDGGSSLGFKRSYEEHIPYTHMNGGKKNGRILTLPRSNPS
How it was run: as §1

SMILES | IC50 (COLO205 (colon)) [nM] | IC50 [1] [nM] | IC50 [2] [nM] | IC50 [3] [nM]
COc1cc(N2CCC(N3CCN(CCF)CC3)CC2)ccc1Nc1nccc(-c2c(-c3ccc(OC)c(C(=O)Nc4c(F)cccc4F)c3)nc3ccccn23)n1 [Example 61, N-(2,6-difluorophenyl)-5-[3-(2-{[4-{4-[4-(2-fluoroethyl)-1-piperazinyl]-1-piperidinyl}-2-(methyloxy)phenyl]amino}-4-pyrimidinyl)imidazo[1,2-a]pyridin-2-yl]-2-(methyloxy)benzamide] | 250 to 1000 | < 250 | < 100 | < 100
CCOc1ccc(-c2nc3ccccn3c2-c2ccnc(Nc3ccc(N4CCC(N5CCN(CCF)CC5)CC4)cc3OC)n2)cc1C(=O)Nc1c(F)cccc1F [Example 63, N-(2,6-difluorophenyl)-2-(ethyloxy)-5-[3-(2-{[4-{4-[4-(2-fluoroethyl)-1-piperazinyl]-1-piperidinyl}-2-(methyloxy)phenyl]amino}-4-pyrimidinyl)imidazo[1,2-a]pyridin-2-yl]benzamide] | 250 to 1000 | < 250 | < 100 | < 100
CCN1CCN(C2CCN(c3ccc(Nc4nccc(-c5c(-c6cccc(C(=O)Nc7c(F)cccc7F)c6)nc6ccccn56)n4)c(OC)c3)CC2)CC1 [Example 64, N-(2,6-difluorophenyl)-3-[3-(2-{[4-[4-(4-ethyl-1-piperazinyl)-1-piperidinyl]-2-(methyloxy)phenyl]amino}-4-pyrimidinyl)imidazo[1,2-a]pyridin-2-yl]benzamide] | 250 to 1000 | < 250 | 100 to 500 | < 100
COc1cc(N2CCC(N3CCN(CCS(C)(=O)=O)CC3)CC2)ccc1Nc1nccc(-c2c(-c3ccc(OC)c(C(=O)Nc4c(F)cccc4F)c3)nc3ccccn23)n1 [Example 65, N-(2,6-difluorophenyl)-2-(methyloxy)-5-[3-(2-{[2-(methyloxy)-4-(4-{4-[2-(methylsulfonyl)-ethyl]-1-piperazinyl}-1-piperidinyl)phenyl]amino}-4-pyrimidinyl)imidazo-[1,2-a]pyridin-2-yl]benzamide] | 250 to 1000 | < 250 | < 100 | < 100
COc1cc(N2CCC(N3CCN(S(C)(=O)=O)CC3)CC2)ccc1Nc1nccc(-c2c(-c3cccc(C(=O)Nc4c(F)cccc4F)c3)nc3c(C)cccn23)n1 [Example 68, N-(2,6-difluorophenyl)-3-(8-methyl-3-{2-[(2-(methyloxy)-4-{4-[4-(methylsulfonyl)-1-piperazinyl]-1-piperidinyl}phenyl)amino]-4-pyrimidinyl}imidazo[1,2-a]pyridin-2-yl)benzamide] | 250 to 1000 | 250 to 1000 | 100 to 500 | 100 to 500
COc1cc(N2CCC(N3CCN(C(C)=O)CC3)CC2)ccc1Nc1nccc(-c2c(-c3cccc(C(=O)Nc4c(F)cccc4F)c3)nc3ccccn23)n1 [Example 70] | 250 to 1000 | < 250 | < 100 | < 100
COc1cc(N2CCC(C3CCN(CCF)CC3)CC2)ccc1Nc1nccc(-c2c(-c3cccc(C(=O)Nc4c(F)cccc4F)c3)nc3ccccn23)n1 [Example 95, N-(2,6-difluorophenyl)-3-[3-(2-{[4-[1′-(2-fluoroethyl)-4,4′-bipiperidin-1-yl]-2-(methyloxy)phenyl]amino}-4-pyrimidinyl)imidazo[1,2-a]pyridin-2-yl]benzamide] | > 1000 | 250 to 1000 | < 100 | 100 to 500
COc1cc(N2CCC(C3CCN(CCF)CC3)CC2)ccc1Nc1nccc(-c2c(-c3ccc(OC)c(C(=O)Nc4c(F)cccc4F)c3)nc3ccccn23)n1 [Example 96, N-(2,6-difluorophenyl)-5-[3-(2-{[4-[1′-(2-fluoroethyl)-4,4′-bipiperidin-1-yl]-2-(methyloxy)phenyl]amino}-4-pyrimidinyl)imidazo[1,2-a]pyridin-2-yl]-2-(methyloxy)benzamide] | > 1000 | 250 to 1000 | < 100 | < 100

Second part, the compound after the results:

IC50 (COLO205 (colon)) [nM] | IC50 [1] [nM] | IC50 [2] [nM] | IC50 [3] [nM] | SMILES
250 to 1000 | < 250 | < 100 | < 100 | CCOc1ccc(-c2nc3ccccn3c2-c2ccnc(Nc3ccc(N4CCC(N5CCN(CCS(C)(=O)=O)CC5)CC4)cc3OC)n2)cc1C(=O)Nc1c(F)cccc1F [Example 66, N-(2,6-difluorophenyl)-2-(ethyloxy)-5-[3-(2-{[2-(methyloxy)-4-(4-{4-[2-(methylsulfonyl)-ethyl]-1-piperazinyl}-1-piperidinyl)phenyl]amino}-4-pyrimidinyl)imidazo[1,2-a]pyridin-2-yl]benzamide]
250 to 1000 | 250 to 1000 | < 100 | 100 to 500 | COc1cc(N2CCC(N3CCN(CCS(C)(=O)=O)CC3)CC2)ccc1Nc1nccc(-c2c(-c3cccc(C(=O)Nc4c(F)cccc4F)c3)nc3c(C)cccn23)n1 [Example 67, N-(2,6-difluorophenyl)-3-[8-methyl-3-(2-{[2-(methyloxy)-4-(4-{4-[2-(methylsulfonyl)ethyl)-1-piperazinyl}-1-piperidinyl)phenyl]amino]-4-pyrimidinyl)imidazo[1,2-a]pyridin-2-yl]benzamide]
250 to 1000 | < 250 | < 100 | < 100 | COc1cc(N2CCC(N3CCN4CCOC[C@@H]4C3)CC2)ccc1Nc1nccc(-c2c(-c3cccc(C(=O)Nc4c(F)cccc4F)c3)nc3ccccn23)n1 [Example 87, N-(2,6-difluorophenyl)-3-[3-(2-{[4-{4-[(9aS)-hexahydropyrazino[2,1-c][1,4]oxazin-8(1H)-yl]-1-piperidinyl}-2-(methyloxy)phenyl]amino}-4-pyrimidinyl)imidazo[1,2-a]pyridin-2-yl]benzamide]
> 1000 | < 250 | < 100 | < 100 | COc1cc(N2CCC(N3CCN4CCOC[C@@H]4C3)CC2)ccc1Nc1nccc(-c2c(-c3ccc(OC)c(C(=O)Nc4c(F)cccc4F)c3)nc3ccccn23)n1 [Example 88, N-(2,6-difluorophenyl)-5-[3-(2-{[4-{4-[(9aS)-hexahydropyrazino[2,1-c][1,4]oxazin-8(1H)-yl]-1-piperidinyl}-2-(methyloxy)phenyl]amino}-4-pyrimidinyl)imidazo[1,2-a]pyridin-2-yl]-2-(methyloxy)benzamide]
250 to 1000 | 250 to 1000 | < 100 | < 100 | COc1cc(N2CCC(C3CCN(CCS(C)(=O)=O)CC3)CC2)ccc1Nc1nccc(-c2c(-c3cccc(C(=O)Nc4c(F)cccc4F)c3)nc3ccccn23)n1 [Example 97, N-(2,6-difluorophenyl)-3-(3-{2-[(2-(methyloxy)-4-{1′-[2-(methylsulfonyl)ethyl]-4,4′-bipiperidin-1-yl}phenyl)amino]-4-pyrimidinyl}imidazo[1,2-a]pyridin-2-yl)benzamide]
250 to 1000 | 250 to 1000 | < 100 | < 100 | COc1cc(N2CCC(C3CCN(CCS(C)(=O)=O)CC3)CC2)ccc1Nc1nccc(-c2c(-c3ccc(OC)c(C(=O)Nc4c(F)cccc4F)c3)nc3ccccn23)n1 [Example 98, N-(2,6-difluorophenyl)-2-(methyloxy)-5-(3-{2-[(2-(methyloxy)-4-{1′-[2-(methylsulfonyl)ethyl]-4,4′-bipiperidin-1-yl}phenyl)amino]-4-pyrimidinyl}imidazo[1,2-a]pyridin-2-yl)benzamide]
